Results: US9504255B2, “Physical antimicrobial method” (priority 2012, dated 2016)

What was measured:
Escherichia coli = experiment: Drug-resistance experiment on pathogens isolated from the Department of Burns (NCCLS 1997); assay type: cell-based; conditions: clinical isolates
Enterobacter cloacae = experiment: as above; assay type: cell-based; conditions: clinical isolates
aerogenes = experiment: as above; assay type: cell-based, Enterobacter aerogenes; conditions: clinical isolates
Pseudomonas aeruginosa = experiment: as above; assay type: cell-based; conditions: clinical isolates
Acinetobacter = experiment: as above; assay type: cell-based; conditions: clinical isolates
[1] = system: patients clinically diagnosed with impetigo; experiment: Experiment of treatment of impetigo; assay type: in vivo, human; conditions: to the affected area 2 times a day, for 7 days
Experimental: 1652 patients clinically diagnosed with impetigo by the Department of Dermatology in the hospital were chosen and randomly divided into experimental group (n=1032) and control group (n=620). The experimental group was treated with the antimicrobial composition of the invention to the affected area, and the control group was treated with mupirocin, 2 times a day, for 7 days.

MSSA = experiment: Drug-resistance experiment on pathogens isolated from the Department of Burns (NCCLS 1997); assay type: cell-based, Staphylococcus aureus; conditions: clinical isolates

| Compound | resistance rate of Escherichia coli (Escherichia coli) [%] | resistance rate of Pseudomonas aeruginosa (Pseudomonas aeruginosa) [%] | resistance rate of Acinetobacter (Acinetobacter) [%] | also measured |
| --- | --- | --- | --- | --- |
| CC1(C)S[C@@H]2[C@H](NC(=O)[C@H](N)c3ccccc3)C(=O)N2[C@H]1C(=O)O [ampicillin] | 80.1 | – | – | – |
| Cc1nnc(SCC2=C(C(=O)O)N3C(=O)[C@@H](NC(=O)Cn4cnnn4)[C@H]3SC2)s1 [cefazolin] | 40.0 | – | – | resistance rate of Enterobacter cloacae (Enterobacter cloacae): 89.3%; resistance rate of aerogenes (aerogenes): 79.3% |
| CC(C)(O/N=C(\C(=O)N[C@@H]1C(=O)N2C(C(=O)[O-])=C(C[n+]3ccccc3)CS[C@H]12)c1csc(N)n1)C(=O)O [ceftazidime] | – | 21.7 | 21.2 | – |
| C/C(=C\C(=O)OCCCCCCCCC(=O)O)C[C@@H]1OC[C@H](C[C@@H]2O[C@H]2[C@@H](C)[C@H](C)O)[C@@H](O)[C@H]1O [mupirocin] | – | – | – | effective rate [1]: 85% |
| CCN1CCN(C(=O)N[C@@H](C(=O)N[C@@H]2C(=O)N3[C@@H]2SC(C)(C)[C@@H]3C(=O)O)c2ccccc2)C(=O)C1=O [piperacillin] | – | – | 93.3 | – |
| gentamicin | 40.9 | 35.3 | 18.9 | resistance rate of Enterobacter cloacae (Enterobacter cloacae): 28.1%; resistance rate of aerogenes (aerogenes): 8.2% |
| penicillin | – | – | – | resistance rate of MSSA (MSSA): 87.0% |
| piperazine amoxicillin | – | 34.1 | – | – |
